# Reference: patent US20230348415A1, “BISPECIFIC ANTAGONISTS OF RETINOL-BINDING PROTEIN 4 THAT STABILIZE TRANSTHYRETIN TETRAMERS, THEIR PREPARATION, AND USE IN THE TREATMENT OF COMMON AGE-RELATED COMORBIDITIES” (The Trustees of Columbia University in the City of New York, priority 2020, published 2023)
# Legend:
# [1] = Metabolic stability and clearance in rat liver microsomes; type: in vitro ADME; details: 30 minute incubation
# Protocol: The results of metabolic stability determinations for novel compounds and testosterone (positive control) were conducted in the presence of human, rat, mouse, and monkey liver microsomes. Values shown are percent of parent remaining after a 30 minute incubation. All measurements were done in duplicate. Assay results for testosterone were within an acceptable range.
# Mixed-gender human liver microsomes (Lot #1710084), male Sprague-Dawley rat liver microsomes (Lot #1610290), male CD-1 mouse liver microsomes (Lot #1710069), and male Cynomolgous liver microsomes (Lot #1510193) were purchased from XenoTech. The reaction mixture, minus NADPH, was prepared as described below. The test article was added into the reaction mixture at a final concentration of 1 μM. The control compound, testosterone, was run simultaneously with the test article in a separate reaction. An aliquot of the reaction mixture (without cofactor) was equilibrated in a shaking water bath at 37° C. for 3 minutes. The reaction was initiated by the addition of cofactor, and the mixture was incubated in a shaking water bath at 37° C. Aliquots (100 μL) were withdrawn at 0, 10, 20, 30, and 60. […] Half-lives were calculated using GraphPad software, fitting to a single-phase exponential decay equation.
# serum RBP4 [2] = molecular target: T1, serum RBP4 (Mus musculus (Mouse), UniProt Q00724); test: Serum RBP4 after long-term oral dosing in Abca4−/−/Rdh8−/− mice; type: in vivo; details: 25 mg/kg daily in chow
# Protocol: FIG. 9. Effect of the long-term oral (±)-44 administration in Abca4^−/−/Rdh8^−/− mice on serum RBP4 levels. Serum RBP4 levels were measured in vehicle-treated Abca4^−/−/Rdh8^−/− mice (squares) and (±)-44-treated Abca4^−/−/Rdh8^−/− mice (triangles) at the indicated time points. […] Error bars show S.D. Each data point on the graph represents a serum RBP4 concentration from an individual animal.
# (§1) Blood samples were collected from a tail vein. Whole blood was drawn into a centrifuge tube and was allowed to clot at room temperature for 30 minutes followed by centrifugation at 2000 g for 15 minutes at […] to collect serum. Aliquots of plasma samples collected in the mouse pharmacokinetic study were analyzed for the RBP4 concentration using the RBP4 (mouse/rat) dual ELISA kit (AdipoGen, San Diego, CA) following the manufacturer's instructions. In adi-hRBP4 transgenic mouse experiments, blood samples were collected from a tail vein. […] Mouse serum RBP4 (produced predominantly in the liver) was measured using the RBP4 (mouse/rat) dual ELISA kit (AdipoGen, San Diego, CA; catalog number AG-45A-0012YTP-KI01)
# (±)-44 was formulated into a Picolab 5053 chow to ensure a daily dosing of 25 mg/kg of (±)-44. […] Following the 10 weeks of dosing, the eyecups of treated and untreated Abca4^−/−/Rdh8^−/− mice as well as the eyecups of the reference wild type mice were collected for the quantitative A2E analysis.
# RBP4 = RBP4 (Homo sapiens (Human), UniProt P02753); test: RBP4 SPA binding assay (displacement of 3H-retinol); details: read-out: RBP4 SPA IC50
# serum RBP4 [3] = molecular target: T1, serum RBP4; test: Serum RBP4 measurement after a single oral dose in mice; type: in vivo
# Protocol: FIG. 5. Pharmacokinetic and pharmacodynamic properties of (±)-44 in mice. (A) Serum RBP4 levels following a single 25 mg/kg oral administration of (±)-44. (B) Blood compound levels following administration of a single oral 5 mg/kg dose of (±)-44. Data represented as the mean±SD. Three mice per treatment group were used in the study.
# as §1
# hERG = hERG (Homo sapiens (Human), UniProt Q12809); test: CiPA hERG QPatch Assay; type: cell-based; details: five-point concentration-response, n = 2
# Sequence of hERG (Q12809 whole entry): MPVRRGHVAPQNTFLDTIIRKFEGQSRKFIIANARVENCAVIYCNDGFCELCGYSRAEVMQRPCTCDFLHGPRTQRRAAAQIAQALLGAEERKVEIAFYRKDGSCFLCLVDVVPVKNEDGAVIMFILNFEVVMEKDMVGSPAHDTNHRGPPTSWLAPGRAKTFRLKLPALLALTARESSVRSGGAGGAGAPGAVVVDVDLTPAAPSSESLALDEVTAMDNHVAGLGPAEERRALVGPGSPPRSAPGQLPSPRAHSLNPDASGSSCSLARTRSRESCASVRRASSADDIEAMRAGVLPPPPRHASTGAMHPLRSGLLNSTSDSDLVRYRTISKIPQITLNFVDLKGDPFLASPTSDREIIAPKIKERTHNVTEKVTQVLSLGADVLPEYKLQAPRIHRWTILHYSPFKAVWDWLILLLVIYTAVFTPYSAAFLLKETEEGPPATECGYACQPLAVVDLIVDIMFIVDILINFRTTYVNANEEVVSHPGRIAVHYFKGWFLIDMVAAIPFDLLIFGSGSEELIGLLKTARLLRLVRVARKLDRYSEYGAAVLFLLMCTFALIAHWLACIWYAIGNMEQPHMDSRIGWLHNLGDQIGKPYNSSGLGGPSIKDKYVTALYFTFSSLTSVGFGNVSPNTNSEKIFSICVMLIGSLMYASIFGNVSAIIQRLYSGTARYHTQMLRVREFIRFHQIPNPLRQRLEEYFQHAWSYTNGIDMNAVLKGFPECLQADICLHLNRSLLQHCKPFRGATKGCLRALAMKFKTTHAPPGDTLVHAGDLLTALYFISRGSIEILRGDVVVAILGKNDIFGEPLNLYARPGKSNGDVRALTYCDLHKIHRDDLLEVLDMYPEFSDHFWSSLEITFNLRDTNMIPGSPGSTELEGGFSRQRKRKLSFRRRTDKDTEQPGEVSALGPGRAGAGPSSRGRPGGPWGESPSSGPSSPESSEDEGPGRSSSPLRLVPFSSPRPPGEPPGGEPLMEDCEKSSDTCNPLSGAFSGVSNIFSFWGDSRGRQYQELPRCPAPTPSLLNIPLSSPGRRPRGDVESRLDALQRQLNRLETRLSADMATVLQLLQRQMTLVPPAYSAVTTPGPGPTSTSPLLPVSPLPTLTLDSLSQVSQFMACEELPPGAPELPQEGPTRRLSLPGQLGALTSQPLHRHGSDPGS
# [4] = Plasma protein binding, rat plasma; type: in vitro ADME; details: Sprague Dawley, pH 7.4, read-out: % PPB, R (converted)
# Protocol: Plasma protein binding (PPB) for compounds determination for compound (±)-44 in PBS (pH 7.4) was conducted by Eurofins using equilibrium dialysis of plasma with HPLC-UV/Vis detection.
# The peak areas of the test compound in the buffer and test samples were used to calculate percent binding and recovery according to the following formulas:
# • Areap=Peak area of analyte in protein matrix • Areab=Peak area of analyte in buffer • Areac=Peak area of analyte in control sample
compound,measurement,setting,value
"Cc1cc(C(=O)O)nc(N2CCC(COc3ccccc3C(F)(F)F)C2)n1 (racemic) [Compound (±)-44, (±)-6-Methyl-2-(3-((2-(trifluoromethyl)phenoxy)methyl)pyrrolidin-1-yl)pyrimidine-4-carboxylic Acid]","Liver Microsomal Stability (% remaining at 30 min), RLM",[1],93%
same,serum RBP4 reduction compared to untreated Abca4−/−/Rdh8−/− mice,serum RBP4 [2]; 10 weeks,84%
same,serum RBP4 reduction compared with baseline,"serum RBP4 [2]; week 10, Abca4−/−/Rdh8−/− mice",76%
same,IC50,RBP4,80 nM
same,effect on serum TTR levels,"serum RBP4 [3]; compound dosing in mice, data not shown",no effect
same,maximum reduction in serum RBP4,"serum RBP4 [3]; single 25 mg/kg oral dose, 6 h after dose",81%
same,reduction in serum RBP4 at the 24 h time point,"serum RBP4 [3]; single 25 mg/kg oral dose, 24 h",64%
same,IC50,hERG,> 30000 nM
same,fraction unbound,[4],0.04
